This note sets out measurements from ChEMBL document CHEMBL3507680, “University of Dundee, Gates Library screen for HepG2 cell viability”.

The series is described as follows: Human HepG2 cell viability assay in 384 well format. Format: toxicity, cell-based. Also on record: dose 125 nL, time 70.5 hour; concentration not given beside the values. The note with it: HepG2 cells, read-out: Inhibition.

As for `c1ccc(CO[C@H]2C[C@@H]3CN(Cc4cccnc4)C[C@@H]3C2)cc1`, the cytotoxicity at 70.5 h is -3.52%.
Turning to `Cc1cnc(C(=O)N(C)[C@@H]2CCC[C@@H](Oc3ccccc3)[C@@H]2O)cn1`, the cytotoxicity at 70.5 h was 16.9%.
To `Cc1nc2ccccn2c1CC(=O)N[C@@H]1CC[C@@H](N2CCOCC2)[C@@H]1O` belongs -1.29%; to `Cc1n[nH]c(C)c1-c1cnc(CC2CCN(C(C)C)CC2)cn1`, -2.78%; to `CN1CCCC[C@@H]2[C@H]1[C@@H](c1ccccc1)CCN2S(=O)(=O)N1CCCC1`, -1.85%.
To `COCCN1CCCC(c2nc(C)n3c(C)c(C)sc23)C1` (stereo unspecified) belongs -5.38%; to `Cc1cccc2nc(C(=O)N3CCCC[C@]4(C)NC(=O)CC[C@H]34)cn12`, -0.96%.
The value for `O[C@H]1CN(Cc2ccc3c(c2)OCCO3)CC[C@@]12CCCO2` was -2.15%; that for `CO[C@H]1CN(Cc2ccc(F)cc2)CC[C@@]12CCCO2` was 6.89%; that for `O=C(CCCn1cccn1)N1C[C@@H](O)[C@H](Oc2cccc(F)c2)C1` was 3.04%.
In the case of `CC(C)n1ccnc1CN1CCCC1c1cccc(-n2ccnc2)n1` (stereo unspecified), the cytotoxicity at 70.5 h is -2.76%.
The value for `Nc1nccnc1C1CN(C(=O)c2cnc(C3CC3)nc2)CCO1` (stereo unspecified) was -4.03%; that for `CN1CCN(C(=O)C2CCCN(c3cccnn3)C2)CC1` (stereo unspecified) was 26.4%; that for `COc1ccc(OC)c(C(O)CN2CCC(N3CCC(C)CC3)CC2)c1` (stereo unspecified) was 2.26%.
As for `CC(=O)N1CCC(C(=O)N2CCCC(Cc3cccc(C)n3)C2)CC1` (stereo unspecified), the cytotoxicity at 70.5 h was -4.08%.
For the compound `Cn1nccc1CCC(=O)N1CCC(c2cnccn2)CC1`, the cytotoxicity at 70.5 h was -13.1%.
To `Cc1nc2ccc(C(=O)N3C[C@@H](O)[C@H](N4CCOCC4)C3)cc2[nH]1` belongs 12%; to `CCN(Cc1ccncc1)CC1(O)CCN(C(=O)c2ccccc2C)C1` (stereo unspecified), -2.28%.
As for `CNc1cncc(C2CCCN2S(=O)(=O)c2ccccc2)n1` (stereo unspecified), the cytotoxicity at 70.5 h was found to be 0.983%.
To `CS(=O)(=O)c1cn[nH]c1C1CCCCN1C(=O)c1cncs1` (stereo unspecified) belongs -6.78%.
Consider `Cn1nccc1CCC(=O)N1CCCC(c2cnccn2)C1` (stereo unspecified), for which the cytotoxicity at 70.5 h was 12.9%.
Consider `CNC(=O)c1ccc(C2CCCN(C(=O)c3c(C)noc3C)C2)nc1` (stereo unspecified), for which the cytotoxicity at 70.5 h was -7.86%.
As for `CC(=O)N1CCC(Cc2cncc(-c3c(C)n[nH]c3C)n2)C1` (stereo unspecified), the cytotoxicity at 70.5 h was -9.36%.
To `CC1CCN(CCNCc2cc(-c3ccccc3)cn3nnnc23)CC1` belongs -3.94%; to `COCCN1CCN(Cc2cnc(C)nc2)CC1`, -6.04%; to `Cn1ccnc1C(=O)N1CCOC(Cc2ccccc2Cl)C1` (stereo unspecified), 11.6%.
Turning to `O=C(CCn1ccnc1)N1C[C@@H](O)[C@H](Oc2cccc(F)c2)C1`, the cytotoxicity at 70.5 h turned out to be 0.895%.
The value for `Cc1cc(C)nc(C2CCN(C(=O)c3c(C)noc3C)C2)n1` (stereo unspecified) was -3.76%; that for `Cc1cc(C)nc(C2CCN(C(=O)c3cncnc3C)C2)n1` (stereo unspecified) was 12.9%.
As for `O=S(=O)(c1ccc(F)c(F)c1)N1CCCC(c2nccs2)C1` (stereo unspecified), the cytotoxicity at 70.5 h worked out at 1.6%.
In the case of `CCc1nnc(Nc2cccc(C3CCN(c4cnccn4)CC3)n2)s1`, the cytotoxicity at 70.5 h was 14.7%.
As for `CCc1nnc(Nc2cccc(C3CCN(C(=O)CNC)CC3)n2)s1`, the cytotoxicity at 70.5 h is 10.1%.
The value for `CCc1nnc(Nc2cccc(C3CCN(C(=O)CN(C)C)CC3)n2)s1` was 9.15%; that for `c1ccc(CN2CCC(c3nccnc3-n3ccnc3)CC2)cc1` was -14.9%.
On to `CCc1nnc(Nc2cccc(C3CCCN(CC(C)(C)C)C3)n2)s1` (stereo unspecified), for which the cytotoxicity at 70.5 h is -10.7%.
The value for `CCC(=O)N1CCC(Cc2ccccc2-c2ccncc2)(C(N)=O)C1` (stereo unspecified) was -10.9%.
To `CC(C)c1ncc(CN2CCOC(C(=O)Nc3ccccc3)C2)cn1` (stereo unspecified) belongs -9.69%; to `Cc1ccc(C(=O)N2CCCCC2CN(C)C)cc1` (stereo unspecified), 4.31%.
On to `COCCCNC(=O)CN(C)C(C)c1nc(C)no1` (stereo unspecified), for which the cytotoxicity at 70.5 h was -3.18%.
The value for `CC(C#N)CN(C)C(=O)CCNC(=O)C(C)(C)C` (stereo unspecified) was 0.0301%.
The value for `Cc1nc(CN2CCOC3(CCCC3)C2)oc1C` was -4.4%; that for `CCN1CCOC(CNCc2cnc(C(C)(C)C)s2)C1` (stereo unspecified) was -5.25%.
As to `CNC(=O)CN1CCC(CN(C)Cc2ccccc2N(C)C)CC1`, the cytotoxicity at 70.5 h worked out at 1.48%.
On to `CC(O)CN(C)C(=O)CCNC(=O)OC(C)(C)C` (stereo unspecified), for which the cytotoxicity at 70.5 h is -3.37%.
With `COc1c(Cl)cc(Cl)cc1CN1CCC(C(N)=O)C1` (stereo unspecified), the cytotoxicity at 70.5 h stood at 8.49%.
As for `COc1ccccc1/C=C/CNCC1CCc2nncn2C1` (stereo unspecified), the cytotoxicity at 70.5 h was 8.27%.
The value for `Cc1cc(C)cc(NCCC(=O)NC2CCN(C(=O)C3CC3)CC2)c1` was -2.45%; that for `CCOC1CCN(C(=O)c2ccc(-c3cccc(C)c3)[nH]c2=O)CC1` was -8.75%.
The value for `Cc1cccc(-c2ccc(C(=O)N3CCN(C(C)C)CC3)c(=O)[nH]2)c1` was -2.78%.
Consider `O=C(c1ccc(-c2ccccc2)[nH]c1=O)N1CCN(C2CC2)CC1`, for which the cytotoxicity at 70.5 h is -8.84%.
For `COc1ccccc1CC(C)CC(=O)NC(C)C` (stereo unspecified), the cytotoxicity at 70.5 h is 0.743%.
As for `CCOc1c(F)cccc1C(=O)N(C)CCc1ccccn1`, the cytotoxicity at 70.5 h was found to be 36.5%.
The value for `CS(=O)(=O)CCn1ccc(NC(=O)Cc2ccccc2Cl)n1` was -1.99%.
Turning to `O=C(C(c1ccccc1)S(=O)(=O)c1ccccn1)N1CCCCC1` (stereo unspecified), the cytotoxicity at 70.5 h was -7.07%.
Regarding `NC(=O)C1CCN(C(=O)NC2CCN(CC3CCCC3)C2)CC1` (stereo unspecified), the cytotoxicity at 70.5 h worked out at 9.67%.
For the compound `CN(C)Cc1ccnc(NS(=O)(=O)Cc2cccc(F)c2)c1`, the cytotoxicity at 70.5 h amounted to 1.98%.
The value for `CCN(C)S(=O)(=O)NCC(O)c1c(Cl)cccc1Cl` (stereo unspecified) was 18.4%; that for `NC(=O)c1cn(CC2CCC2)c(C2CC2)n1` was 3.19%.
To `Cn1cc(CNc2nc3cc(Cl)ccc3n2C)cn1` belongs -0.411%.
To `Cc1c(F)cccc1S(=O)(=O)Nc1noc(C(C)C)n1` belongs -7.44%; to `Cc1nc(NS(=O)(=O)c2cccc(F)c2C)no1`, 6.79%.
As for `C=C(C)Cn1cc(C(N)=O)nc1C1CC1`, the cytotoxicity at 70.5 h came out at 20.9%.
The value for `CC(C)c1nnc2n1CC(CNC/C=C/c1ccccc1)CC2` (stereo unspecified) was -7.41%; that for `Cc1nn(C)c2ncc(CNCCc3ccccn3)cc12` was -8.59%; that for `CN1CCN(C)C(CNC(=O)N(C)Cc2ccc(Cl)c(F)c2)C1` (stereo unspecified) was -11.2%.
As for `CCOc1c(F)cccc1C(=O)N(C)CCn1cccn1`, the cytotoxicity at 70.5 h was determined as 7.19%.
As to `CC(C)c1cc(NC(=O)CNC2CCc3ncnn3C2)on1` (stereo unspecified), the cytotoxicity at 70.5 h turned out to be 11.4%.
Turning to `CCOC(C)c1nccn1CCC(=O)Nc1cc(C)on1` (stereo unspecified), the cytotoxicity at 70.5 h came to 6.06%.
On to `CC(C)c1nc(NS(=O)(=O)c2ccccc2Cl)no1`, for which the cytotoxicity at 70.5 h amounted to 0.444%.
The value for `CCc1cc(C)c(C(=O)N2CCCC(c3nnn[nH]3)C2)o1` (stereo unspecified) was -0.273%; that for `Cc1n[nH]c(C2CN(CCNC3CCCCC3)CCO2)n1` (stereo unspecified) was 3.49%; that for `CC(C(=O)NC(C)(C)C)S(=O)(=O)Cc1noc(C(C)(C)C)n1` (stereo unspecified) was -5.8%.
To `Cc1ccc(CN(c2cc(C)nc3nc(C(F)(F)F)nn23)C2CC2)cc1` belongs 0.825%.
As to `CC(=O)C(Cc1ccccc1)NC(=O)CSc1nccn1C1CC1` (stereo unspecified), the cytotoxicity at 70.5 h is -0.98%.
On to `Cc1cc(N(Cc2ccccn2)C2CC2)n2nc(C(F)(F)F)nc2n1`, for which the cytotoxicity at 70.5 h is -0.852%.
To `O=C1CSc2ccc(C(=O)N3CCCC(n4ccnc4)C3)cc2N1` (stereo unspecified) belongs -1.51%; to `CC(=O)NCc1ccc(S(=O)(=O)NC(=O)c2ccc3c(c2)COC3)s1`, 0.101%.
As to `N#CCCN(CC1CCOC1)Cn1ccc(-c2ccccc2)n1` (stereo unspecified), the cytotoxicity at 70.5 h is -0.616%.
To `CC(C)(C)c1cnc(CN2CCCS(=O)(=O)CC2)o1` belongs -1.34%; to `CN1CCN(C2CCN(Cc3noc(C4CC4)n3)CC2)C1=O`, -1.19%.
Take `COCCN(c1cc(C)nc2nc(C(F)(F)F)nn12)C1CCCC1`: the cytotoxicity at 70.5 h came out at 12.8%.
Consider `CC(=O)NCc1ccc(S(=O)(=O)NC(=O)c2ccc3c(c2)COC3)cc1`, for which the cytotoxicity at 70.5 h was -4.89%.
The value for `O=C(c1cnc2n1CCCC2)N1CCCC1` was -2.75%; that for `N#CCCN(CC1CCOC1)Cn1ccc(-c2cccs2)n1` (stereo unspecified) was 8.39%; that for `Cc1nc(C)c(C(=O)N2CCc3cc(F)ccc3C2C)o1` (stereo unspecified) was -4.82%.
Consider `CC(NCCn1cccn1)c1cc(F)ccc1F` (stereo unspecified), for which the cytotoxicity at 70.5 h was -3.98%.
For the compound `CC(NCCn1cccn1)c1ccc(F)cc1F` (stereo unspecified), the cytotoxicity at 70.5 h was -2.25%.
Consider `CCCC(C)CS(=O)(=O)NCc1cccnc1N(C)C` (stereo unspecified), for which the cytotoxicity at 70.5 h was -1.93%.
With `CNc1ncc(C(=O)N2CCCC(Cc3ccccc3OC)C2)s1` (stereo unspecified), the cytotoxicity at 70.5 h came to 20.4%.
As to `c1cc(CNCCC2CCCO2)ccn1` (stereo unspecified), the cytotoxicity at 70.5 h turned out to be 5.59%.
The value for `N#Cc1ccc(CN2CCCCC2Cn2cncn2)c(F)c1` (stereo unspecified) was 4.33%; that for `CC1CCCN(S(=O)(=O)NCCN/C(O)=C2/N=CC=CC2=O)C1` (stereo unspecified) was 0.429%.
On to `Cc1cc(C)n(CC(C)CNC(=O)N(C)Cc2cc(C)on2)n1` (stereo unspecified), for which the cytotoxicity at 70.5 h was -8.81%.
The value for `Cc1cc(C)n(CC(C)CNC(=O)CCc2ccco2)n1` (stereo unspecified) was -6.24%; that for `Cc1cc(C)n(CC(C)CNC(=O)N(C)Cc2ccco2)n1` (stereo unspecified) was -10.5%.
To `CCN(Cc1cccc(C(N)=O)c1)c1ccccc1` belongs 12.2%; to `Cc1nn(C)c2ncc(NC(=O)N(C)Cc3cnn(C)c3)cc12`, -14%.
For the compound `CCN(CC1CCOC1)S(=O)(=O)Cc1ccccc1Cl` (stereo unspecified), the cytotoxicity at 70.5 h was -6.21%.
The value for `CC(=O)N(C)CC(=O)NC(CC(C)C)c1cccs1` (stereo unspecified) was -5.7%; that for `Cc1nc2ccccc2nc1CN1CCc2c(nc(C3CC3)n2C)C1` was -0.539%; that for `Cc1ccc(Nc2nccc(C3CCN(C(=O)CN)C3)n2)nc1` (stereo unspecified) was -5.12%.
